Read-outs that look alike come from different tables or passages of the source.

Data set [1] relates to WT isolates. Nature of the data set: Synergy by the checkerboard method. It is filed as cell-based. The following applies: FA/co-drug combination, count. The method, then: (§1) CLSI broth microdilution (BMD) and anaerobic agar dilution (AD) methods were performed. Modifications of standard test methods included adding 10% human serum, adjusting the medium pH to 5, 6, and 8, and synergy was assessed by the checkerboard method.

Data set [2] relates to S. aureus. Description: Reference broth microdilution susceptibility testing (CLSI M07-A8), Canadian isolates. Type of data set: cell-based. The following applies: for number of isolates inhibited: Staphylococcus aureus; for R rate: overall S. aureus population. An excerpt:
Methods: To determine a contemporary susceptibility (S) spectrum pattern, 153 GP isolates (123 S. aureus, 15 coagulase-negative staphylococci [CoNS] and 15 S. pyogenes [SPYO]) were collected from 5 Canadian medical centers between 2001 and 2006.
For orientation: Broth dilution looks for growth in wells or tubes with falling amounts of substance.

The conditions of data set [3]: cited from earlier work.
Data set [4] concerns S. aureus. Description: MIC of S. aureus in humans (description). It is filed as cell-based. Conditions: Staphylococcus aureus.
Data set [5] relates to methicillin-resistant S. aureus (MRSA) strain USA 300. Description: Hollow fiber pharmacodynamic model, resistance potential. It is filed as cell-based. The following applies: 600 mg q12h. As to the method: A hollow fiber model was used to evaluate CEM-102 resistance potential in methicillin-resistant S. aureus (MRSA) strain USA 300 (Network of Antimicrobial Resistance in Staphylococcus aureus (NARSA), Chantilly, Va.). USA 300 is a highly virulent strain of MRSA and is the most common community-associated MRSA isolate in the USA. MIC values were determined in accordance with Clinical and Laboratory Standards Institute (CLSI).
The hollow fiber model comprised a two-compartment hollow fiber model (Louie et al. Antimicrob Agents Chemother 52:2486-2496(2008)) consisting of a volume of 15 mL in the central compartment, with multiple ports for the removal of broth, delivery of antibiotics, and collection of bacterial and antimicrobial samples. […] All experiments were performed in duplicate.
Hollow fibers contain 15 ml of media was prepared and inoculated with 10^6 colony forming units (CFU)/mL USA 300 bacteria. One of three different dosing regimens of […] was then applied to the fibers: (1) […] q12h; (2) 1200 mg/ml×2, followed by […], q12h; (3) 1500 mg/ml×2, followed by […], q12h.

The subject of data set [6] is WT isolates. Description: MIC with 10% human serum or adjusted medium pH. Type of data set: cell-based. The method, then:
as §1

Data set [7] deals with WT isolates. Description: Single-step mutational rates to resistance. Type of data set: cell-based.
Data set [8] relates to Gram-positive (GP) species. Description: CLSI broth microdilution / anaerobic agar dilution MIC, spectrum study. Conditions: all GP isolates. Type of data set: cell-based. The method, then:
as §1

For another data set, the system named is GN species. Description: CLSI MIC, spectrum study. Type of data set: cell-based. Conditions: all GN except E. brevis, M. catarrhalis, N. meningitidis. The method, then:
as §1

Data set [9] deals with E. brevis, M. catarrhalis and N. meningitidis. Description: CLSI MIC, spectrum study. Type of data set: cell-based. The method, then:
as §1

In data set [10] the test system is 217 S. aureus Canadian isolates. It is filed as cell-based. The following applies: Canadian S. aureus isolates, comparators. The method, then: as §1

On to `CN[C@H](CC(C)C)C(=O)N[C@H]1C(=O)N[C@@H](CC(N)=O)C(=O)N[C@H]2C(=O)N[C@H]3C(=O)N[C@H](C(=O)N[C@H](C(=O)O)c4cc(O)cc(O)c4-c4cc3ccc4O)[C@H](O)c3ccc(c(Cl)c3)Oc3cc2cc(c3O[C@@H]2O[C@H](CO)[C@@H](O)[C@H](O)[C@H]2O[C@H]2C[C@](C)(N)[C@H](O)[C@H](C)O2)Oc2ccc(cc2Cl)[C@H]1O` [Vancomycin], for which, in the data set with WT isolates [1], the Additive is recorded as 2, the Antagonism is listed as 0, the Indeterminate stood at 0 and the Indifferent was determined as 4. In addition, in the data set with WT isolates [1], the “Synergy: Complete” value is given as 0 and the “Synergy: Partial” value is on record as 0.
A word on the MIC: it is the lowest concentration that inhibits growth of the organism. For the compound `CC(=O)O[C@H]1C[C@@]2(C)[C@@H](C[C@@H](O)[C@H]3[C@@]4(C)CC[C@@H](O)[C@@H](C)[C@@H]4CC[C@@]32C)/C1=C(\CCC=C(C)C)C(=O)O` [FA, Fusidic acid], the number of isolates inhibited in the data set with S. aureus [2] (years tested 2001-2002, read-out: No. inhibited at MIC (μg/mL) of: 0.06) was 8 µg/mL; with S. aureus [2] (years tested 2001-2002, read-out: No. inhibited at MIC (μg/mL) of: 0.12), 29 µg/mL; with S. aureus [2] (years tested 2001-2002, read-out: No. inhibited at MIC (μg/mL) of: 0.25), 1 µg/mL; with S. aureus [2] (years tested 2001-2002, read-out: No. inhibited at MIC (μg/mL) of: ≧2), 2 µg/mL; in the data set with S. aureus [2] (years tested 2003-2004, read-out: No. inhibited at MIC (μg/mL) of: 0.06), 6 µg/mL; with S. aureus [2] (years tested 2003-2004, read-out: No. inhibited at MIC (μg/mL) of: 0.12), 33 µg/mL. Further, the number of isolates inhibited in the data set with S. aureus [2] (years tested 2003-2004, read-out: No. inhibited at MIC (μg/mL) of: ≧2) stood at 3 µg/mL; with S. aureus [2] (years tested 2005-2006, read-out: No. inhibited at MIC (μg/mL) of: 0.06) it was 2 µg/mL; with S. aureus [2] (years tested 2005-2006, read-out: No. inhibited at MIC (μg/mL) of: 0.12) it was 32 µg/mL; in the data set with S. aureus [2] (years tested 2005-2006, read-out: No. inhibited at MIC (μg/mL) of: 0.25), 2 µg/mL; in the data set on S. aureus [2] (years tested 2005-2006, read-out: No. inhibited at MIC (μg/mL) of: ≧2) it was 5 µg/mL. In data set [3], the protein binding is on record as 95-97%. For the same compound, the MIC in the data set on S. aureus [4] was 2.5 µg/mL; in the data set with GN species, no less than 2 µg/mL; in [9], 0.12 to 0.5 µg/mL. In data set [5], the “outcome in hollow fiber model” value was “regrowth and development of resistance by 24 h and 48 h”. Further, the “increase in MIC results” value in the data set with WT isolates [6] (10% serum added) was found to be 4 fold. In the data set on WT isolates [6] (medium pH 5.0-6.0), the “effect of lower media pH on protein binding effects” value is recorded as “decreased negative protein binding effects”. Moreover, the single-step mutational rate in the data set on WT isolates [7] (4×MIC) was 1.2×10^−6; in the data set with WT isolates [7] (16×MIC), 9.8×10^−8. Also, the “MIC values, range” value in [8] was 0.06 to 32 µg/mL.
On to `C[C@H]1COc2c(N3CCN(C)CC3)c(F)cc3c(=O)c(C(=O)O)cn1c23` [levofloxacin], for which, in the data set on WT isolates [1], the Additive was 0, the Antagonism is given as 0, the Indeterminate was 2 and the Indifferent worked out at 4. Besides, in the data set on WT isolates [1], the “Synergy: Complete” value was 0 and the “Synergy: Partial” value amounted to 0.
With gentamicin, in the data set on WT isolates [1], the Additive is given as 3, the Antagonism was 0, the Indeterminate came to 0 and the Indifferent was 1. Moreover, in the data set with WT isolates [1], the “Synergy: Complete” value is 1 and the “Synergy: Partial” value is reported as 1.
In the case of `CO[C@H]1/C=C/O[C@@]2(C)Oc3c(C)c(O)c4c(O)c(c(/C=N/N5CCN(C)CC5)c(O)c4c3C2=O)NC(=O)/C(C)=C\C=C\[C@H](C)[C@H](O)[C@@H](C)[C@@H](O)[C@@H](C)[C@H](OC(C)=O)[C@@H]1C` [Rifampin, rifampin], in the data set on WT isolates [1], the Additive is 1, the Antagonism came to 0, the Indeterminate is given as 0 and the Indifferent was found to be 0. In the data set on WT isolates [1], the “Synergy: Complete” value is listed as 0 and the “Synergy: Partial” value turned out to be 5.
`CC[C@H]1OC(=O)[C@H](C)[C@@H](O[C@H]2C[C@@](C)(OC)[C@@H](O)[C@H](C)O2)[C@H](C)[C@@H](O[C@@H]2O[C@H](C)C[C@H](N(C)C)[C@H]2O)[C@](C)(O)C[C@@H](C)C(=O)[C@H](C)[C@@H](O)[C@]1(C)O` [erythromycin]: the resistance rates in [10] is 52.1%. The R rate in the data set on S. aureus [2] worked out at 52.0%.
`Cc1onc(-c2ccccc2)c1C(=O)N[C@@H]1C(=O)N2[C@@H]1SC(C)(C)[C@@H]2C(=O)O` [Oxacillin]: in the data set with WT isolates [1], the Additive is on record as 1, the Antagonism was 0, the Indeterminate came out at 1 and the Indifferent is listed as 3. Also, in the data set on WT isolates [1], the “Synergy: Complete” value came to 0 and the “Synergy: Partial” value was found to be 1.
Regarding `CCC[C@@H]1C[C@@H](C(=O)N[C@@H]([C@H]2O[C@H](SC)[C@H](O)[C@@H](O)[C@H]2O)[C@H](C)Cl)N(C)C1` [clindamycin], in [10], the resistance rates was determined as 30.9%. In the data set on S. aureus [2], this compound registered a R rate of 28.5%.
